US20250082605A1 (priority 2016, published 2025)

Experiments:
TRPV1 = TRPV1 (Rattus norvegicus, UniProt O35433); assay: TRPV1 receptor intensity by vertebral level after epidural RTX injection at T1-T4; assay type: in vivo; set-up: from tissue; host or cells: rat tissue at vertebral levels C6-L4 after in vivo epidural RTX; conditions: RTX injection at T1-T4 vertebral levels, FIG. 2
Text: The nerves associated with the sympatho-excitation corresponding to increased cardiac sympathetic nerve activity are predominately found within the first four thoracic vertebral levels (Evans et al. (1953) N. Engl. J. Med. 249:791-796). Thus, administration to one or more of the first four thoracic vertebral levels may be beneficial because the nerves associated with cardiac sympathetic afferent nerve activity are predominately found within the first four thoracic vertebral levels. By treating these thoracic vertebral levels, denervation of these sympathetic afferent nerves will be substantially achieved with minimal or only partial denervation or ablation of nerves at other vertebral levels. […] Additionally, the small images inset on the figure show greater intensity of activity visible at the C6, C7, T6, T7, and L4 vertebral levels, as compared to the C8 through T5 vertebral levels.
For epidural application of RTX, a small midline incision was made in the region of the T13-L1 thoracic vertebrae. Following dissection of the superficial muscles, two small holes (approximately 2 mm by 2 mm) were made in the left and right sides of the T13 vertebra. […]

hypertensive rat = conditions: in vivo
[1] = test system: cardiac sympathetic afferent reflex (CSAR); assay: Response to activation of the CSAR (MAP, RSNA) over 26 weeks after epidural or epicardial RTX; assay type: in vivo, rat
Procedure: (§1) The following Examples 1 through 9 discuss data from rats with induced CHF. The Examples show many improved indicators associated with RTX treatment in CHF subjects. The rat models provide for comparison of epidural administration of RTX against epicardial administration of RTX and against various controls. For the epicardial data, RTX was administered directly to the epicardium by swab during open surgery contemporaneously with induced myocardial infarction (coronary artery ligation).
(§2) For epidural application of RTX, a small midline incision was made in the region of the T13-L1 thoracic vertebrae. Following dissection of the superficial muscles, two small holes (approximately 2 mm by 2 mm) were made in the left and right sides of the T13 vertebra. A polyethylene catheter (PE-10) was inserted into the […] via the left hole and gently advanced about 5.5-6 cm to the left T1 level at which the first injection (6 μg/mL, 10 μL) was made at a very slow speed to minimize the diffusion of RTX. Then the catheter was pulled back about 0.5 cm to left T2, T3, and T4, respectively, to perform serial injections (10 μL each) in each segment. Then the catheter was withdrawn and the same injection was repeated on the right side. A silicone gel was used to seal the hole in the T13 vertebra. The skin overlying the muscle was closed with a 3-0 polypropylene suture. Simple interrupted sutures were used to close the skin.
FIGS. 3A-4B show experimental results for a rat study in accordance with an embodiment of the present application.

early hypertensive rats = assay: Arterial pressure in early hypertensive rat model after epidural RTX; assay type: in vivo
Procedure: Open circles indicate the control population, while filled circles indicate the RTX-treated population. Epidural administration of RTX was by injection on Day 0, as indicated by the arrow on the graph.
The hypertensive model is a genetic spontaneously hypertensive rat (SHR). The early hypertension rats were treated at 8 weeks at age, reflecting a population in which blood pressure was only minimally elevated at the beginning of the study. Examples 10 and 11 illustrate treatment of subjects with hypertension and pre-hypertension (i.e., mild hypertension or early hypertension) and without induced CHF. For these subjects, epidural administration of RTX may be associated with an absolute reduction in blood pressure. Additionally, subjects treated with RTX may show less increase in blood pressure over time, as compared to a control population. Or, treatment may be associated with both an absolute reduction in pressure and lessened increase over time.
FIG. 13A-13C show experimental results in a study using an early-hypertensive rat model. […] Open circles indicate the control population, while filled circles indicate the RTX-treated population. Epidural administration of RTX was by injection on Day 0, as indicated by the arrow on each graph.

rats with induced CHF [2] = assay: Long-term survival of rats with induced CHF over 28 weeks; assay type: in vivo, rat
Procedure: as §1, §2
FIG. 7 depicts the survival rate of rats with induced chronic heart failure with and without RTX treatment. In FIG. 7A, the treatment was epicardial. In FIG. 7B the treatment was epidural. […] In particular, without RTX treatment, seven of ten rats died during the 28-week period. But only two of nine rats with RTX treatment died during the same period.

TRPV1 afferents = assay: Immunofluorescence study for TRPV1 afferents after L2-L5 RTX administration; assay type: in vivo, rat
Text: Additionally, an immunofluorescence study for TRPV1 afferents was made following administration at the L2-L5 levels. […] Within the T1-T5 levels, no reduction in TRPV1 afferents was shown following the L2-L5 injection. Within the heart, TRPV1 fluorescence remained on the surfaces of the myocardium and within the cardiac tissue.

rats with induced CHF [3] = assay: End-systolic and end diastolic pressure volume relationship in CHF rats; assay type: in vivo, rat
Text: In each case, administration of vehicle or RTX and vehicle was epidural.
In each case, administration of vehicle or RTX and vehicle was epidural. […] Both significance measures were at the P<0.05 level.
as §1, §2
In each case, administration of vehicle or RTX and vehicle was epidural. […] CHF corresponds to a reduction in ESPVR, with appeared unaffected by epidural RTX.

[4] = epidural RTX vs vehicle, weeks 1, 5-6, 9-11, 24-26, FIG. 3B
[5] = vehicle-only continued to increase

Chain of TRPV1 (O35433 whole entry): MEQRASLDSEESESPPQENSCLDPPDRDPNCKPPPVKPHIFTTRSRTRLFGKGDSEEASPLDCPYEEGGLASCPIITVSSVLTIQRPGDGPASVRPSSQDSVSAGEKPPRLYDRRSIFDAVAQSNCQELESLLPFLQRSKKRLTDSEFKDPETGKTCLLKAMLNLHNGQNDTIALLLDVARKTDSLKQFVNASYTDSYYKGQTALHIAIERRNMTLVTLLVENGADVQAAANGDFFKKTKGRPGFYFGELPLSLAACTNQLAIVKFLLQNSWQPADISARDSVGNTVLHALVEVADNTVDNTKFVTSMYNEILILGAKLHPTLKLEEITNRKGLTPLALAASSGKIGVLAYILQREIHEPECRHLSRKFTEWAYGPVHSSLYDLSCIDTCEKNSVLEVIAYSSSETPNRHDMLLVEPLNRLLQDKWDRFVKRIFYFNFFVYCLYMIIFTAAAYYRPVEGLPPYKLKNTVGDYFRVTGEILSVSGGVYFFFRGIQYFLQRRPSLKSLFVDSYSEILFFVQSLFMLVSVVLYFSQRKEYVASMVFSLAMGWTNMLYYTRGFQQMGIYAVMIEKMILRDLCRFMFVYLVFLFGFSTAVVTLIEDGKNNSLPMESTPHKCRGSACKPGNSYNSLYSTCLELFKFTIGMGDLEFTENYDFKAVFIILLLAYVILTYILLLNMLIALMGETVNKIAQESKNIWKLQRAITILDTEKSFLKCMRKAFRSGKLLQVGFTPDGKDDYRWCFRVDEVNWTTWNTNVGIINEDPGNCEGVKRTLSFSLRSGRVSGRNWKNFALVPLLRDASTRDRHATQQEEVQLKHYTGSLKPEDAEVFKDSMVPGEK

C=C(C)[C@]12C[C@@H](C)[C@@]34O[C@](Cc5ccccc5)(O[C@@H]1[C@@H]3C=C(COC(=O)Cc1ccc(O)c(OC)c1)C[C@]1(O)C(=O)C(C)=C[C@@H]41)O2 [RTX, resiniferatoxin]
reduced vanilloid (TRPV1) receptor intensity, localisation (TRPV1): generally localized to the four treated vertebral levels and the one or two vertebral levels proximate the treated vertebral levels | ABP, MAP and heart rate following injection (hypertensive rat): substantial short term increases | average short-term increase in MAP over baseline (hypertensive rat): about 30 mmHg | duration of transient increase in blood pressure, heart rate, or both (hypertensive rat): about five or ten | duration of cardiac sympathetic afferent ablation ([1]; epicardial RTX administration): 3-4 months | mean arterial pressure (MAP) response to activation of the CSAR [1, 4]: substantial decrease | renal sympathetic nerve activity (RSNA) response to activation of the CSAR [1, 4]: substantial decrease | MAP following treatment (early hypertensive rats): 125-130 mmHg | day from which MAP was significantly lower than vehicle-only (early hypertensive rats): 20 days | day from which diastolic arterial pressure was significantly lower than control (early hypertensive rats): ~22 days | day from which systolic arterial pressure was significantly lower than control (early hypertensive rats): ~23 days | mean arterial pressure (MAP) after RTX injection (early hypertensive rats; epidural RTX Day 0): decreased slightly | systolic arterial pressure within a few days after RTX injection (early hypertensive rats; then returned and maintained): decreased slightly | diastolic arterial pressure over the study period (early hypertensive rats; [5]): remained approximately steady | mean arterial pressure (MAP) over the period of the study (early hypertensive rats; [5]): approximately steady | survival improvement, epidural versus epicardial treatment (rats with induced CHF [2]; 28 weeks): roughly comparable improvement | rats that died during the 28-week period (rats with induced CHF [2]; epidural RTX at T1-T4, n=9 (without RTX seven of ten)): two of nine | long-term survival rate (rats with induced CHF [2]; epidural RTX vs no RTX, 28 weeks): significantly higher | TRPV1 afferents in DRG neurons, L2-L5 levels (TRPV1 afferents): elimination of most TRPV1 afferents | TRPV1 afferents, L1 level (TRPV1 afferents): many TRPV1 afferents remained | TRPV1 afferents, T1-T5 levels (TRPV1 afferents): no reduction | TRPV1 fluorescence in the heart (surfaces of the myocardium and cardiac tissue) (TRPV1 afferents): remained | end diastolic pressure volume relationship (EDPVR), difference (rats with induced CHF [3]; CHF + epidural RTX vs population without CHF): not statistically significant | end diastolic pressure volume relationship (EDPVR) (rats with induced CHF [3]; CHF + epidural RTX vs untreated CHF): statistically significantly less | end-systolic pressure volume relationship (ESPVR), CHF-related reduction (rats with induced CHF [3]; epidural RTX): unaffected
